One series addresses Cytochrome P450 2C9 (Homo sapiens, UniProt P11712). Description: Inhibition of human liver microsomes CYP2C9 using diclofenac as substrate by MUX-MS/MS analysis. It is filed as ADME, Microsome.
Another series concerns the target Cytochrome P450 2D6 (Homo sapiens, UniProt P10635). Description: Inhibition of human liver microsomes CYP2D6 using dextromethorphan as substrate by MUX-MS/MS analysis. It is filed as ADME, Microsome.
Series [1] concerns the target T1, Probable G-protein coupled receptor 142 (Homo sapiens, UniProt Q7Z601).
T1 sequence (Q7Z601 whole entry): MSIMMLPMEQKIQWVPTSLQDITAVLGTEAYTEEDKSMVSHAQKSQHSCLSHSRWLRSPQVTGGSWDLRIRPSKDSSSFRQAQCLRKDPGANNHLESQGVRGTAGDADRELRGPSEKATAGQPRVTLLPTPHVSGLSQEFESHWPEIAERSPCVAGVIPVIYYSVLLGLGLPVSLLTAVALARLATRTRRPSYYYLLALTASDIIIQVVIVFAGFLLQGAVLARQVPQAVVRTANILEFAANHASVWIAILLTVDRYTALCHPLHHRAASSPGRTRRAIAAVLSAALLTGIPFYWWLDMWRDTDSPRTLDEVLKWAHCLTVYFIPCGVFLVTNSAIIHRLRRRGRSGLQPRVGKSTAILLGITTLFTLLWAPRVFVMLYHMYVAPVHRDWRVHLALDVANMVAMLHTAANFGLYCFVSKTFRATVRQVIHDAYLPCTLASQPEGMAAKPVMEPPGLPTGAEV
Description: Agonist activity at human GPR142 expressed in CHO cells measured for 3 mins by Fluo-4M dye based FLIPR assay. It counts as cell-based. As to conditions: read-out: IC50 (the source's name).

The target of another series is Cytochrome P450 3A4 (Homo sapiens, UniProt P08684). Description: Inhibition of human liver microsomes CYP3A4 using testosterone as substrate by MUX-MS/MS analysis. It is filed as ADME, Microsome. In general terms: Microsomes from liver hold many membrane-bound enzymes, among them those of drug oxidation.
Sequence of Cytochrome P450 3A4 (P08684 whole entry): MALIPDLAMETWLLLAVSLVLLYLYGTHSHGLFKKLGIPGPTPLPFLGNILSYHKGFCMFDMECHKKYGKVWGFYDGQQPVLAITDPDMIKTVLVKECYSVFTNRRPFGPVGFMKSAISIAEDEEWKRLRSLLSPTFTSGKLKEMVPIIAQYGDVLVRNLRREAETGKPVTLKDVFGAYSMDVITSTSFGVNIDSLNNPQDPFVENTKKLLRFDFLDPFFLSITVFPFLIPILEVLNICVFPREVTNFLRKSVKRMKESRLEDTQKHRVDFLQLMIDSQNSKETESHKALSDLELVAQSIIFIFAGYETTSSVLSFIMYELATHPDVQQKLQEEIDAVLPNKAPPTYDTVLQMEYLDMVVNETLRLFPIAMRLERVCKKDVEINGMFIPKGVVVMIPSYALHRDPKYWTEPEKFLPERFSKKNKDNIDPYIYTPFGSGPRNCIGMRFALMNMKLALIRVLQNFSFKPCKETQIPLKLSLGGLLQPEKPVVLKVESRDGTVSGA
Series [2] addresses Voltage-gated inwardly rectifying potassium channel KCNH2 (Homo sapiens, UniProt Q12809). Briefly: Inhibition of human ERG expressed in HEK293 cells assessed as reduction in S35-MK-0499 binding. It is filed as cell-based.
In series [3] the target is T2, Probable G-protein coupled receptor 142 (Mus musculus, UniProt Q7TQN9).
T2 sequence (Q7TQN9 whole entry): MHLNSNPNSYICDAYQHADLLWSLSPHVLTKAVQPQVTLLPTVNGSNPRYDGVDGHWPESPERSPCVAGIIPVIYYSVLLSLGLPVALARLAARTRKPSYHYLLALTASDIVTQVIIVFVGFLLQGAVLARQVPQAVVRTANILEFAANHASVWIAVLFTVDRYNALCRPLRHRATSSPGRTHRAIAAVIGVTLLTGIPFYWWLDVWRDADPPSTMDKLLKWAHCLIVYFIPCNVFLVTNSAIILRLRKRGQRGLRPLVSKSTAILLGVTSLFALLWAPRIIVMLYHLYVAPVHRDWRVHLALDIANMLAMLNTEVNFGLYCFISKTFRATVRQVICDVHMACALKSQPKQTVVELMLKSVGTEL
Description: Agonist activity at mouse GPR142 expressed in CHO cells measured for 3 mins by Fluo-4M dye based FLIPR assay. It is filed as cell-based. To be noted: read-out: IC50 (the source's name).

Series [4] is described as follows: Clearance in rat at 2 mg/kg, po or 1 mg/kg, iv. It counts as ADME, organism-based. As to conditions: in vivo.
Series [5] can be described thus: Half life in rat at 2 mg/kg, po or 1 mg/kg, iv. It counts as ADME, organism-based. As to conditions: in vivo.
Series [6] is described as follows: Oral bioavailability in rat at 2 mg/kg. It is filed as ADME, organism-based. As to conditions: in vivo.
Series [7] in a line: Protein binding in rat plasma assessed as unbound fraction. It is filed as ADME, cell-free.
The nature of series [8]: Volume of distribution at steady state in rat at 2 mg/kg, po or 1 mg/kg, iv. To be noted: in vivo, read-out: Vdss. It is filed as ADME, organism-based.

SMILES strings stand for the structures. Some results are limits rather than exact numbers.

Sequence of Cytochrome P450 2D6 (P10635 whole entry): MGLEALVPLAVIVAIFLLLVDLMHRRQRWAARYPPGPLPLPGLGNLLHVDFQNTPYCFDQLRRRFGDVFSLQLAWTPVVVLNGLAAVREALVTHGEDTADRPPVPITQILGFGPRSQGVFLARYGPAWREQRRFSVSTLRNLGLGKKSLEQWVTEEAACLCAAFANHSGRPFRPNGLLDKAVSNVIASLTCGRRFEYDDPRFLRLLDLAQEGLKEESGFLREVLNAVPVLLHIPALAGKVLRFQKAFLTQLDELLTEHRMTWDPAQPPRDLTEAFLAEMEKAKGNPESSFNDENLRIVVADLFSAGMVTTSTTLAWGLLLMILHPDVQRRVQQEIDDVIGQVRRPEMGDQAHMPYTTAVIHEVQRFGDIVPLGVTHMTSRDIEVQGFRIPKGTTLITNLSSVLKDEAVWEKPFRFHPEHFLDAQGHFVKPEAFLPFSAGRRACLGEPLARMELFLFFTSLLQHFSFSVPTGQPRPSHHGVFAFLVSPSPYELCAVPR
Sequence of Cytochrome P450 2C9 (P11712 whole entry): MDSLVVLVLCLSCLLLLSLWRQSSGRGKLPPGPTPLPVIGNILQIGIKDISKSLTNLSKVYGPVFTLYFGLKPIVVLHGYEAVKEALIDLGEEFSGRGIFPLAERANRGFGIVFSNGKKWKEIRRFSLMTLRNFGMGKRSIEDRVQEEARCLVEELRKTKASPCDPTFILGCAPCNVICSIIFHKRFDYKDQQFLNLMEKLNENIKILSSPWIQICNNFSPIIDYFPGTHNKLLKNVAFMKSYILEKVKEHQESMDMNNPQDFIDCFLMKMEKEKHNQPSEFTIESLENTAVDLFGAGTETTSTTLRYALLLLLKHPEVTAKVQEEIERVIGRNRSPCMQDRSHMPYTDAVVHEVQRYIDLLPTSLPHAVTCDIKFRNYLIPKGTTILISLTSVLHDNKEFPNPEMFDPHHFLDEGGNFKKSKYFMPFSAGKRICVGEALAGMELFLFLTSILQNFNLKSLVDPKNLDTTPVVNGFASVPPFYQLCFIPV
Sequence of Voltage-gated inwardly rectifying potassium channel KCNH2 (Q12809 whole entry): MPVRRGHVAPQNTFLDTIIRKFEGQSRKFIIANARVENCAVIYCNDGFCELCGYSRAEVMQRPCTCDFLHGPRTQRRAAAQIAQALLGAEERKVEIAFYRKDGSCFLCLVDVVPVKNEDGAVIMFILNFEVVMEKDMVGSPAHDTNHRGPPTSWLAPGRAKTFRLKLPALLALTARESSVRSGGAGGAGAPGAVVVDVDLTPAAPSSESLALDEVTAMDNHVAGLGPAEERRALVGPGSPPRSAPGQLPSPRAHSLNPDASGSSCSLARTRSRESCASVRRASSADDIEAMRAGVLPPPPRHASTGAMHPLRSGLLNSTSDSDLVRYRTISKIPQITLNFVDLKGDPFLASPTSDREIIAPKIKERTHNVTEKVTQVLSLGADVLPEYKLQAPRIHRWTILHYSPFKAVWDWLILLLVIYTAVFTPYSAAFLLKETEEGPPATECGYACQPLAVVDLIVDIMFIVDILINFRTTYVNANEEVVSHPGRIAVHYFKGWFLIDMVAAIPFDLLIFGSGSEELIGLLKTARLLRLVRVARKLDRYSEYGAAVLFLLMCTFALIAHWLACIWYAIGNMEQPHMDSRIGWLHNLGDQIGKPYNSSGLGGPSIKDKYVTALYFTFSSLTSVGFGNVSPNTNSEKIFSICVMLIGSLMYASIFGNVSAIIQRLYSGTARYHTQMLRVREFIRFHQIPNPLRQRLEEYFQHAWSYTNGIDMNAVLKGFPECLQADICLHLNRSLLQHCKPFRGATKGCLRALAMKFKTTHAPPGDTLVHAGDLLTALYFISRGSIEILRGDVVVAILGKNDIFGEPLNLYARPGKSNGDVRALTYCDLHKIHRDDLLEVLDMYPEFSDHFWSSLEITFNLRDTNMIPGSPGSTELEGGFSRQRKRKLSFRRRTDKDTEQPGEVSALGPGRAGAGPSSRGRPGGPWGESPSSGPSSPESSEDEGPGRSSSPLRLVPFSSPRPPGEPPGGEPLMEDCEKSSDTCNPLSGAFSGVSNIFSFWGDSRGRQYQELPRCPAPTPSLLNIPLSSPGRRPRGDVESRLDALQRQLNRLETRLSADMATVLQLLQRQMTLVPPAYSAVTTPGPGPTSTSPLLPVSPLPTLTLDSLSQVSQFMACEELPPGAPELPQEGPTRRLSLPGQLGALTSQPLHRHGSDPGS

`Cc1cc(-c2ccc3c(c2)-c2nnc(Oc4ccccc4OC(F)(F)F)n2CCO3)ccn1`: the IC50 (in general, the point on the concentration scale where inhibition reaches its midpoint) was 26100 nM at Cytochrome P450 2C9, 8650 nM against Cytochrome P450 2D6, over 50000 nM against Cytochrome P450 3A4 and 2840 nM in series [2]. The EC50 in [1] came to 89 nM.
`O=C(Nc1cccc(Cl)c1Cl)N1CCOc2ccc(-c3ccncc3)cc2C1`: the EC50 in [3] was 157 nM; in series [1], 708 nM.
`Cc1cc(-c2ccc3c(c2)-c2nnc(Oc4cccc(Cl)c4)n2CCO3)ccn1`: the IC50 was over 50000 nM against Cytochrome P450 2C9, 7020 nM against Cytochrome P450 2D6, over 50000 nM against Cytochrome P450 3A4 and 931 nM in series [2]. The EC50 in series [1] stood at 58 nM.
Regarding `O=C(Nc1ccc(Cl)c(Cl)c1)N1Cc2ccc(-c3ccncc3)cc2C1`, the EC50 in series [3] and in [1] was over 20000 nM throughout.
Take `O=C(Nc1ccc(F)cc1)N1CCOc2ccc(-c3ccncc3)cc2C1`: the EC50 in series [3] came out at 2610 nM; in [1] it was 1220 nM.
Consider `N#Cc1cccc(NC(=O)N2CCOc3ccc(-c4ccnc(N)c4)cc3C2)c1`, for which the EC50 in series [3] was 448 nM; in series [1], 810 nM.
On the same counts, the results for `CCCCN1CCN(C(=O)Nc2ccc(Cl)c(Cl)c2)Cc2cc(-c3ccncc3)ccc21` are 4500 nM and over 20000 nM.
Molecule `O=C(Nc1cccc(Cl)c1)N1CCOc2ccc(-c3ccncc3)cc2C1` returned a clearance in [4] of 56.1 mL/min/kg. Also, the EC50 in series [3] stood at 164 nM; in series [1], 108 nM. The half-life – broadly, the time needed for the level to fall by half in the phase considered – in series [5] was 0.66 h. The bioavailability (as a rule, dose-corrected exposure relative to a reference, in per cent) in series [6] came out at 1%. In addition, the fraction unbound (as a rule, the share of the substance not bound to proteins or other matrix) in series [7] is 0.0086. Besides, the Vd in series [8] worked out at 2 L/kg.
On to `COc1cccc(NC(=O)N2CCOc3ccc(-c4ccncc4C)cc3C2)c1`, for which the EC50 was determined as 1180 nM in [3] and 394 nM in series [1].
As to `CN1CCN(C(=O)Nc2ccc(Cl)c(Cl)c2)Cc2cc(-c3ccncc3)ccc21`, the EC50 was 2570 nM in [3] and over 20000 nM in series [1].
Consider `O=C(Nc1cccc(Oc2ccccc2)c1)N1CCOc2ccc(-c3ccncc3)cc2C1`, for which the results for the EC50 in series [3] and in [1] were 146 nM and 1720 nM, respectively.
For `O=S(=O)(Cc1cccc(C(F)(F)F)c1)N1CCOc2ccc(-c3ccncc3)cc2C1`, in that order: 157 nM and 2290 nM.
On the same counts, the results for `COc1cccc(NC(=O)N2CCOc3ccc(-c4ccncc4OC)cc3C2)c1` are 486 nM and 187 nM.
Regarding `N#Cc1cccc(NC(=O)N2CCOc3ccc(-n4ccnc4)cc3C2)c1`, the EC50 in series [1] came to 110 nM.
As to `Cc1cc(-c2ccc3c(c2)-c2nnc(Oc4cccc(OC(F)(F)F)c4)n2CCO3)ccn1`, the IC50 against Cytochrome P450 2C9 was 14300 nM; at Cytochrome P450 2D6, 1950 nM; on Cytochrome P450 3A4 it was over 50000 nM; in series [2], 693 nM. For the same molecule, the EC50 in series [1] is 78 nM.
For the molecule `O=C(Nc1ccc(Cl)c(Cl)c1)N1CCc2ccc(-c3ccncc3)cc21`, the EC50 in series [3] is 2950 nM; in series [1], over 20000 nM.
On the same counts, the results for `O=C(Nc1ccc(Cl)c(Cl)c1)N1CCNc2ccc(-c3ccncc3)cc2C1` are 158 nM and 146 nM.
For `O=C(Nc1ccc(Cl)c(Cl)c1)N1CCCc2ccc(-c3ccncc3)cc21`, in that order: over 20000 nM and over 20000 nM.
For `O=C(Nc1cccc(Cl)c1F)N1CCOc2ccc(-c3ccncc3)cc2C1`, in that order: 59 nM and 163 nM.
Take `O=C(Nc1ccccc1)N1CCOc2ccc(-c3ccncc3)cc2C1`: the EC50 was 851 nM in series [3] and 793 nM in series [1].
On to `Cc1cc(-c2ccc3c(c2)-c2nnc(Oc4ccccc4Cl)n2CCO3)ccn1`, for which the IC50 against Cytochrome P450 2C9 was over 50000 nM; at Cytochrome P450 2D6 it was 24300 nM; at Cytochrome P450 3A4 it was over 50000 nM; in series [2], 3510 nM. Further, the EC50 in series [1] was determined as 102 nM.
As for `Cc1cc(-c2ccc3c(c2)-c2nnc(Nc4cccc(C(F)(F)F)c4)n2CCO3)ccn1`, the IC50 against Cytochrome P450 2C9 is 1960 nM; on Cytochrome P450 2D6, 326 nM; at Cytochrome P450 3A4 it was 48300 nM; in series [2], 388 nM. Also, the EC50 in [1] came out at 63 nM.
On to `COc1cccc(NC(=O)N2CCOc3ccc(-c4ccnc(C)c4)cc3C2)c1`, for which the EC50 in [1] stood at 374 nM.
As for `COc1ccc(NC(=O)N2CCOc3ccc(-c4ccncc4)cc3C2)cc1`, the EC50 in series [3] and in [1] was over 20000 nM each time.
On to `O=C(Nc1ccc(F)c(Cl)c1)N1CCOc2ccc(-c3ccncc3)cc2C1`, for which the EC50 in [3] amounted to 613 nM; in series [1], 132 nM.
As for `O=C(Cc1cccc(C(F)(F)F)c1)N1CCOc2ccc(-c3ccncc3)cc2C1`, the EC50 in series [3] stood at 611 nM; in series [1] it was 1640 nM.
For `COc1cccc(N(C)C(=O)N2CCOc3ccc(-c4ccncc4)cc3C2)c1`, in that order: over 20000 nM and over 20000 nM.
In the case of `COc1cccc(NC(=O)N2CCOc3ccc(-c4ccncn4)cc3C2)c1`, the EC50 in series [1] is 1600 nM.
With `COc1cccc(NC(=O)N2CCOc3ccc(-c4ccncc4)cc3C2)c1`, the EC50 in [3] worked out at 305 nM; in series [1], 249 nM.
On to `FC(F)(F)c1cccc(Nc2nnc3n2CCOc2ccc(-c4ccncc4)cc2-3)c1`, for which the IC50 on Cytochrome P450 2C9 stood at 531 nM; at Cytochrome P450 2D6, 782 nM; against Cytochrome P450 3A4, 516 nM; in series [2], 557 nM. The EC50 in [1] came to 48 nM.
Regarding `N#Cc1cccc(NC(=O)N2CCOc3ccc(-c4ccncc4)cc3C2)c1`, the EC50 in [3] was found to be 79 nM; in [1] it was 80 nM.
As to `O=C(Nc1cccc(F)c1)N1CCOc2ccc(-c3ccncc3)cc2C1`, the EC50 in [3] turned out to be 413 nM; in series [1], 224 nM.
Turning to `Cc1cc(-c2ccc3c(c2)-c2nnc(Cc4cccc(Cl)c4)n2CCO3)ccn1`, the IC50 was 1450 nM against Cytochrome P450 2C9, 1010 nM on Cytochrome P450 2D6, 1060 nM against Cytochrome P450 3A4 and 3860 nM in series [2]. The EC50 in [1] worked out at 593 nM.
With `O=C(Nc1cccc(-c2ccccc2)c1)N1CCOc2ccc(-c3ccncc3)cc2C1`, the EC50 in [3] was determined as 62 nM; in [1], 343 nM.
On the same counts, the results for `O=C(Nc1ccc(Cl)c(Cl)c1)N1CCCc2ccc(-c3ccncc3)cc2C1` are 590 nM and 839 nM.
On the same counts, the results for `COc1ccccc1NC(=O)N1CCOc2ccc(-c3ccncc3)cc2C1` are 92 nM and 517 nM.
In the case of `Cc1cc(-c2ccc3c(c2)-c2nnc(Nc4cccc(OC(F)(F)F)c4)n2CCO3)ccn1`, the IC50 is 1390 nM at Cytochrome P450 2C9, 1720 nM at Cytochrome P450 2D6, over 50000 nM against Cytochrome P450 3A4 and 236 nM in series [2]. For the same molecule, the clearance in series [4] came out at 11 mL/min/kg. Further, the half-life in series [5] was 2 h. Further, the EC50 in [1] came to 45 nM. In addition, the fraction unbound in [7] worked out at 0.0949. For the same molecule, in [8], the Vd was found to be 1.9 L/kg.
Consider `O=C(Nc1cccc(C(F)(F)F)c1)N1CCOc2ccc(-c3ccncc3)cc2C1`, for which the EC50 in series [3] came out at 110 nM; in series [1] it was 158 nM.
For `O=C(Nc1ccc(Cl)c(Cl)c1)N1CCc2ccc(-c3ccncc3)cc2C1`, in that order: 1050 nM and 1850 nM.
On the same counts, the results for `COc1cccc(NC(=O)N2CCOc3ccc(-c4ccnc(OC)c4)cc3C2)c1` are 2570 nM and 2800 nM.
For `COc1cccc(NC(=O)N2CCOc3ccc(-c4ccnc5ccccc45)cc3C2)c1`, in that order: 216 nM and 962 nM.
For the molecule `O=C(Nc1ccccc1F)N1CCOc2ccc(-c3ccncc3)cc2C1`, the EC50 in series [3] was 604 nM; in series [1], 13100 nM.
